Assay results taken from ChEMBL document CHEMBL3507680, “University of Dundee, Gates Library screen for HepG2 cell viability”.

Assay: Human HepG2 cell viability assay in 384 well format
Assay type: toxicity, cell-based
Parameters: dose 125 nL, time 70.5 hour; cytotoxicity at 70.5 h: concentration not given beside the values
Conditions: HepG2 cells, read-out: Inhibition

Row | Structure (SMILES) | cytotoxicity at 70.5 h
1 | COCCN1CCCC(O)(CN2CCCN(c3ncccn3)CC2)C1=O (stereo unspecified) | 2.84%
2 | COc1ccc(C(NCc2cccc(O)c2)C2CC2)cc1 (stereo unspecified) | 16.8%
3 | COc1ccc(O[C@H]2COCCN(C(=O)c3ccno3)C2)cc1 | -2.74%
4 | Cc1noc(C)c1CNC(=O)c1ccc(NC2CC2)nc1 | 5.69%
5 | Cc1ccc(NC2CCN(C(=O)CCc3ccccc3)CC2)nn1 | -6.29%
6 | CC(=O)N(Cc1ncc(C)o1)C1CCN(CCNC2CCCCC2)C1 (stereo unspecified) | 9.67%
7 | CNC(=O)CCc1cc(C)nc(C2CCN(C3CCCCC3)CC2)c1 | -0.853%
8 | CC(CCNC(=O)NCCNc1cnccn1)c1ccccc1 (stereo unspecified) | -13.6%
9 | NC(=O)C1CCN(c2ncccc2C(=O)N2CCc3ccccc32)C1 (stereo unspecified) | -5.78%
10 | FC(F)Oc1ccccc1CNCc1cc(Br)c2c(c1)OCO2 | -7.29%
11 | CC(C)[C@H]1CN(CCCO)C[C@@H]1NC(=O)CCC(F)(F)F | -7.33%
12 | CCc1nc(C2CCCN2C(=O)CCc2c(C)noc2Cl)no1 (stereo unspecified) | -3.77%
13 | CC(C)n1ccnc1C1CCN(Cc2ccc(Cl)s2)CC1 | -8.66%
14 | COCCc1noc(CNC(=O)C2CC(=O)N(C(C)(C)C)C2)n1 (stereo unspecified) | -7.37%
15 | O=C(c1cccnc1)N1CCC2(CC1)CCN(Cc1ccccn1)C2=O | -9.02%
16 | COc1cc(NCc2ccncc2)c(-c2nn[nH]n2)cc1OC | -1.7%
17 | Cc1oc(-c2cccc(F)c2F)nc1CN(C)CCC(C)(C)O | 26.5%
18 | Cn1c(C(F)(F)F)nn(CCNC(=O)c2nc3ccccc3s2)c1=O | -8.57%
19 | Cc1noc(C)c1CN(C)C(=O)C1CCCCN1CC(C)C (stereo unspecified) | 5.24%
20 | NC(=O)c1ccc(-n2ccnc2-c2cccc(O)c2)cc1N1CCCC1 | -6.04%
21 | COCc1ccccc1NC(=O)NC(C)c1ccc(C)o1 (stereo unspecified) | -3.14%
22 | CSc1ccc(CNC2CCCc3c2cnn3C)cc1 (stereo unspecified) | -8.39%
23 | CC(CN1CCCC1=O)NC(=O)c1ccc(-c2ccco2)[nH]c1=O (stereo unspecified) | -96.6%
24 | CS(=O)(=O)N[C@@H]1COC[C@@H]2CN(Cc3ccco3)C[C@@H]21 | -16.3%

Row | Structure (SMILES) | cytotoxicity at 70.5 h
25 | O=C1NCC(c2ccc(F)cc2)Cc2[nH]c(CCN3CCCC3)nc21 (stereo unspecified) | -20.9%
26 | CC(=O)Cn1ncc(N2CCOCC2)cc1=O | -0.483%
27 | CNC(=O)COC1COC2(CCN(Cc3cccnc3)CC2)C1 (stereo unspecified) | -9.98%
28 | Cc1cc(C)n(C2CCN(C(=O)CN3C(=O)CSc4ccccc43)C2)n1 (stereo unspecified) | 30.3%
29 | CSc1ncccc1C(=O)NCCC(O)c1cc(C)oc1C (stereo unspecified) | -1.76%
30 | O=C(N1CCCC1)N1C[C@H]2CC[C@@H]1CN(Cc1ccncc1)C2 | 17.1%
31 | C/C=C(\C)CN(CCN1CCOCC1)Cc1ccco1 | -8.08%
32 | Cc1ncc(S(=O)(=O)Nc2ccnn2C2CCCCC2)[nH]1 | -1.01%
33 | CCN(CC1=CCN(C)CC1)C(=O)CCOC | -6.72%
34 | CC(C)CC(CCO)CNC(=O)N1CCCC1(C)C (stereo unspecified) | 2.81%
35 | CCc1ccc(C(=O)N2CCN(CC(O)c3ccccc3)CC2)o1 (stereo unspecified) | 1.67%
36 | COc1c(C2CCCN2C(=O)c2cc(Cl)c[nH]2)c(C)nn1C (stereo unspecified) | -0.121%
37 | Cc1cc(C)n(CCNC(=O)c2ncc[nH]2)c(=O)n1 | -3.22%
38 | COc1ccc(NC(=O)N2CCOCC(CN(C)C)C2)c(C)c1 (stereo unspecified) | 17.5%
39 | CCc1c(C(=O)N2CCN(c3cnccn3)CC2)cnn1C(C)(C)C | 20.7%
40 | CCS(=O)(=O)N1CCC(c2nnc(C(F)(F)F)o2)CC1 | 5.3%
41 | CC(C)CC(=O)N1CCN(C(=O)NC(C)C)CC2(CC(=O)N(C)C2)C1 (stereo unspecified) | -18.5%
42 | OCc1c(Cl)ncn1-c1ccccc1 | 0.513%
43 | CC(C)c1nccc(N2CCN(CC(=O)N3CCOCC3)CC2)n1 | -10.5%
44 | CCc1nnsc1C(=O)NCc1c(C)nn(CCOC)c1C | -7.41%
45 | Cc1cc(NC(=O)CCN(CC2CCOC2)C2CC2)no1 (stereo unspecified) | -9.35%
46 | Cc1noc(CCNS(=O)(=O)N2CCCC2c2ccco2)n1 (stereo unspecified) | -8.16%
47 | Cc1nc(N2CCC(C(O)c3nccn3C)CC2)c2c(C)noc2n1 (stereo unspecified) | 20.2%
48 | Cn1ccc(C(=O)NC2CCC23CCN(CC2CCOCC2)CC3)c1 (stereo unspecified) | 3.91%

Row | Structure (SMILES) | cytotoxicity at 70.5 h
49 | COCCCN(Cc1ccncc1)c1ncc(C#N)cc1Cl | -0.375%
50 | CN(Cc1cnc(N)nc1)C(=O)c1coc(COc2ccccc2)n1 | -2.22%
51 | CC(=O)NCC(=O)N1CCCC(C(=O)c2ccc(C(C)(C)C)cc2)C1 (stereo unspecified) | -0.592%
52 | CCn1ncc(Nc2[nH]cnc3nncc2-3)c1C | -3.49%
53 | C[C@H](O)CNc1cc(-c2ccccc2)ncn1 | -0.249%
54 | CC(=O)c1c(C)nn(CC(=O)Nc2ccc(F)cc2)c1C | 30%
55 | O=C(NCc1ccccc1)NCC(O)c1cccc(F)c1 (stereo unspecified) | -6.42%
56 | COc1cc(CNC(=O)COC2CCCCC2)ccc1O | -4.46%
57 | Cc1nc[nH]c1CN1CCCC(CNC(=O)c2ccncn2)C1 (stereo unspecified) | -7.41%
58 | Nc1nc2nc(C3CCCN(C(=O)c4cscn4)C3)ccc2s1 (stereo unspecified) | 9.1%
59 | Cc1cc(CN(C)C(=O)c2ccnc(N(C)C)c2)no1 | -7.52%
60 | CCOc1cccc2c1OCC(C(=O)NS(=O)(=O)c1ccc(Cl)s1)=C2 | -7.24%
61 | NC(=O)N1CCC2(CC1)CN(c1ncccn1)CCO2 | -7.64%
62 | O=C(O)CCc1nc2nccc(C(F)(F)F)n2n1 | 0.723%
63 | CNc1nc2c(s1)C(c1cc(Cl)ccc1F)CC(=O)N2 (stereo unspecified) | 57.6%
64 | Cc1cc(NC(=O)c2ccccc2Br)n(C)n1 | 2.28%
65 | Cc1nc(C2CN(Cc3ccccc3C)CCO2)no1 (stereo unspecified) | -11%
66 | Cc1ccc(C(C)NC(=O)N2CCN(C(=O)CC(F)(F)F)CC2)o1 (stereo unspecified) | -3.77%
67 | c1cn(-c2ccc(CN3CCOC(Cn4cncn4)C3)cc2)cn1 (stereo unspecified) | -7.67%
68 | Cc1noc(C)c1C(=O)N1CCCC(c2cc(C(F)(F)F)[nH]n2)C1 (stereo unspecified) | 11%
69 | Cc1ccc2nc(C3CCN(CC4CC4)CC3)nn2c1 | 32.6%
70 | c1coc(CN2CCc3onc(Cn4cccc4)c3C2)c1 | -6.52%
71 | CN1CCC2(CCN(CC3CC3)CC2)C1=O | -7.27%
72 | CS(=O)(=O)NC1CCN(C(=O)c2ccc(Br)o2)C1 (stereo unspecified) | -5.52%

Row | Structure (SMILES) | cytotoxicity at 70.5 h
73 | CN(CCc1ncnn1C1Cc2ccccc2C1)C1CCS(=O)(=O)C1 (stereo unspecified) | -11.8%
74 | CCc1ncc(C(=O)N2CCN(c3nc(C)cc(OC)n3)CC2)s1 | 15.8%
75 | CC(NC(=O)NCCCn1cncn1)c1ccccc1Cl (stereo unspecified) | -2.04%
76 | CC(C)c1nc(CNC2CCN(C(=O)OC(C)(C)C)CC2)cs1 | -8.72%
77 | CCN(Cc1cc(-c2ccccn2)no1)C1CCS(=O)(=O)C1 (stereo unspecified) | -9.24%
78 | Cc1cccc(C(=O)NCc2ccc(OCCN(C)C)cc2)c1C | -6.51%
79 | COc1ncc(NS(=O)(=O)c2ccc(OC)c(C)c2)c(OC)n1 | 7.97%
80 | Cc1ccc(CCCC(=O)N2CC(=O)Nc3cccnc32)s1 | -11.1%
81 | Cc1nccn1CCCn1cncc1-c1ccc2c(c1)CCC(C)N2C (stereo unspecified) | -1.7%
82 | Cn1nccc1CNC(=O)CCn1nc(C(F)(F)F)cc1C1CC1 | -4.88%
83 | Cc1cc(N2CCCC(c3nccnc3N(C)C)C2)ncn1 (stereo unspecified) | -2.83%
84 | CN(CCOc1cccc(CNS(C)(=O)=O)c1)C1CCOCC1 | 1.39%
85 | Cc1nc(Nc2nnc(C)s2)cc(C2CCCN2c2ccncc2)n1 (stereo unspecified) | -5.11%
86 | O=C(c1cc[nH]n1)N1CCc2c(nc(N3CCCCC3)[nH]c2=O)C1 | -4.43%
87 | COCCN1CCCC12CCN(Cc1cccnc1OC)CC2 | 31.2%
88 | CCc1nc(CC(=O)N2CCC(C(=O)N3CCCCC3)CC2)cs1 | -4.54%
89 | O=C(Cn1ccc2ccccc21)Nc1cc(N2CCOCC2)ncn1 | 14.8%
90 | Cc1nc(C2CCN(C(C)C)CC2)sc1Br | -2.12%
91 | CCc1nccn1CCC(=O)N1CC[C@@H](c2sccc2C)[C@H](O)C1 | -12.3%
92 | CNC(=O)C1(CCCc2cccnc2)CCCCN1 (stereo unspecified) | -1.91%
93 | CC(C)c1noc(C(C)N2CCN(CCCN3CCCC3=O)CC2)n1 (stereo unspecified) | -0.928%
94 | CCOc1cccc2c1OCC(C(=O)NC(C)Cn1cccn1)=C2 (stereo unspecified) | 16.6%
95 | COc1nc(C)ccc1CNC(=O)NC(C)Cc1c(C)nn(C)c1C (stereo unspecified) | -9.98%
96 | COC1(CNC(=O)c2ccc(F)c(F)c2)CCSC1 (stereo unspecified) | -11.7%

Row | Structure (SMILES) | cytotoxicity at 70.5 h
97 | O=C(O)c1cc(S(=O)(=O)Nc2cccc(F)c2F)cc2c1OCCO2 | -0.966%
98 | COCCN1CCOCC2(CCCN(Cc3cccc(F)c3)C2)C1 (stereo unspecified) | -5.38%
99 | Cc1sc2ccccc2c1S(=O)(=O)NCCNC(=O)C(C)C | -7.05%
100 | COc1cccc2c1OCC(Cc1ccc(N)nc1C)C2 (stereo unspecified) | -1.03%
101 | Cc1ccc2[nH]c(-c3cn(C4CCNCC4)nn3)nc2c1C | -3.44%
102 | Cc1nc(C)c(C(=O)N2CCCC2(C)C(=O)NC2CCCC2)o1 (stereo unspecified) | 8.88%
103 | COc1cccc(N2CCN(C(=O)C(OC)c3ccccc3)CC2=O)c1 (stereo unspecified) | -7.1%
104 | CNC(=O)Cc1ccc(NC(=O)NCc2ncc(C)s2)cc1 | 8.85%
105 | Cc1oncc1C(=O)N1CCC2(CC1)CC(N1CCOCC1)C2 | -11.3%
106 | O=C(NC1CC1)[C@@H]1CN(Cc2ccc3c(c2)OCO3)C[C@H]2OCC[C@H]21 | -1.06%
107 | COC(=O)c1ccc(S(=O)(=O)N(C)CC(N)=O)c(Cl)c1 | -3.22%
108 | CC(C)N1CCO[C@H]2CN(C(=O)c3ccsc3)C[C@H]21 | -7.23%
109 | OC(CNCCn1cccn1)COc1ccc(F)cc1 (stereo unspecified) | 5.18%
110 | CC(C)C[C@@H](C(N)=O)n1cc(-c2cncnc2)nn1 | -8.12%
111 | F[C@@H]1CN(Cc2nccs2)C[C@@H]1OCc1nc2cnccc2[nH]1 | -3.2%
112 | Cc1noc(C)c1Cc1nc(C2CC2)no1 | -2.18%
113 | Cc1ccn(Cc2nc(CC(C)C)no2)c(=O)c1 | -6.72%
114 | CCCc1nc(C)cc(N2CCC3(CCC(=O)N(C4CC4)C3)CC2)n1 | -5.2%
115 | O=C(c1cc(Cl)c2c(c1)OCCCO2)N(CC1CCOC1)C1CC1 (stereo unspecified) | -7.67%
116 | Cc1cc(C(=O)N2CCC(CCn3cccn3)CC2)c(C)o1 | -5.22%
